For 14 molecules, inhibition in vivo and inhibition results are on record in US5463073A, “Thienoimidazole derivatives, their production and use” (Takeda Chemical Industries, Ltd., priority 1990, dated 1995).

The subject of assay [1] is A-II-induced pressor action. Nature of the assay: Inhibitory effect on pressor action of angiotensin II in rats (p.o.). Type of assay: in vivo, Jcl: SD rats. Conditions: Rattus norvegicus, po; 1 mg/kg p.o.; male SD rats; A-II 100 ng/kg i.v.; read-out: Pressor Response (percent inhibition of A-II-induced pressor action). An excerpt:
Inhibitory Effect of the Compound of the Present Invention on Pressor Action of Angiotensin
Jcl: SD rats (9 week old, male) were employed. On the day previous to that of the experiment, these animals were applied with cannulation into the femoral artery and vein under anesthesia with pentobarbital Na. The animals were fasted but allowed to access freely to drinking water until the experiment was started. Just on the day of conducting the experiment, the artery cannula was connected with a blood-pressure transducer, and the average blood pressure was recorded by means of polygraph. Before administration of the drug, the pressor action due to intravenous administration of angiotensin II (A-II) (100 ng/kg) as the control was measured. The drugs were orally administered, then, at each point of the measurement, A-II was administered intravenously, and the pressor action was similarly measured. By comparing the pressor action before and after administration of the drug, the percent inhibition by the drug on A-II-induced pressor action was evaluated.

In assay [2] the target is T1, angiotensin II (A-II) receptor (Bos taurus, UniProt P25104).
T1 construct: membrane fraction was prepared from bovine adrenal cortex; from tissue; host or cells: bovine adrenal cortex membrane fraction
T1 sequence (P25104 1-359): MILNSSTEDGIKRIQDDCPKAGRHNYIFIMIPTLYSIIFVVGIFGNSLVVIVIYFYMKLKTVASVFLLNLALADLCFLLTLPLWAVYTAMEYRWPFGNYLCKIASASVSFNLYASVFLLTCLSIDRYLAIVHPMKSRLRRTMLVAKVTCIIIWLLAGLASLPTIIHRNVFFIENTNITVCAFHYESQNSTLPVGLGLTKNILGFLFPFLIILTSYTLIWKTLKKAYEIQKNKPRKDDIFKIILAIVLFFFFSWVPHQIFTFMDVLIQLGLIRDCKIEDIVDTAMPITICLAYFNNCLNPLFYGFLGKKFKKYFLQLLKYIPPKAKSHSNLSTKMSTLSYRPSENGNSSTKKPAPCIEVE
Nature of the assay: Inhibition of binding of angiotensin II to angiotensin II receptor (radioreceptor assay, 125I-A-II, bovine adrenal cortex membrane fraction). The conditions noted are these: room temperature, 1 h; for inhibition at 1 µM: 10^-6 M; for inhibition at 0.1 µM: 10^-7 M. The protocol: Inhibitory Effect of Binding of Angiotensin-II to Angiotensin Receptor
An experiment of inhibition on the binding of angiotensin II (A-II) receptor was conducted by modifying the method of Douglas et al. [Endocrinology, 102, 685-696 (1978)]. An A-II receptor membrane fraction was prepared from bovine adrenal cortex.
The compound of the present invention (10^-6 M or 10^-7 M) and^125 I-angiotensin II (^125 I-A-II) (1.85 kBq/50 μl) were added to the receptor membrane fraction, and the mixture was incubated at room temperature for one hour. The receptor-bound and free ^125 I-A-II were separated through a filter (Whatman GF/B filter), and the radioactivity of ^125 I-A-II bound to the receptor was measured.

What is called inhibition is the percentage by which the read-out fell short of the control. Low readings indicate a response near the control, high ones a response far below the control. On to `CSc1nc2c(C)sc(C(=O)O)c2n1Cc1ccc(-c2ccccc2-c2nn[nH]n2)cc1` [Working Example 15], for which the inhibition in vivo at 1 mg/kg in assay [1] was at least 70%. In assay [2], this molecule returned an inhibition at 1 µM of 50% and an inhibition at 0.1 µM of 14%.
In the same order, the values of `Cc1sc(C(=O)O)c2c1nc(SC(C)C)n2Cc1ccc(-c2ccccc2-c2nnn[nH]2)cc1` [Working Example 17, 2-Isopropylthio-4-methyl-1-[[2'-(1H-tetrazol-5-yl]-biphenyl-4-yl]methyl]thieno[3,4-d]imidazole-6-carboxylic acid] are at least 70%, 64% and 26%.
In the same order, the values of `CCCCSc1nc2c(C)sc(C(=O)O)c2n1Cc1ccc(-c2ccccc2-c2nn[nH]n2)cc1` [Working Example 18, 2-Butylthio-4-methyl-1-[[2',(1H-tetrazol-5-yl)biphenyl-4-yl]methyl]thieno[3,4-d]imidazole-6-carboxylic acid] are 30 to 50%, 66% and 33%.
In the same order, the values of `CCSc1nc2csc(C(=O)O)c2n1Cc1ccc(-c2ccccc2-c2nnn[nH]2)cc1` [Working Example 22, 2-Ethylthio-1-[[2'-(1H-tetrazol-5-yl)biphenyl-4-yl]methyl]thieno[3,4-d]imidazole-6-carboxylic acid] are 50 to 70%, 84% and 45%.
On to `CCSc1nc2c(C)sc(C(=O)OC)c2n1Cc1ccc(-c2ccccc2-c2nn[nH]n2)cc1` [compound 1], for which the inhibition in vivo at 1 mg/kg in assay [1] lay within 30 to 50%. In assay [2], this molecule showed an inhibition at 1 µM of 91% and an inhibition at 0.1 µM of 68%.
In the same order, the values of `CCSc1nc2c(C)sc(C(=O)O)c2n1Cc1ccc(-c2ccccc2-c2nn[nH]n2)cc1` [compound 2] are at least 70%, 64% and 18%.
With `CCSc1nc2c(C)sc(C(=O)OCOC(=O)C(C)(C)C)c2n1Cc1ccc(-c2ccccc2-c2nn[nH]n2)cc1` [compound 5], the inhibition in vivo at 1 mg/kg in assay [1] was at least 70%. In assay [2], at 1 µM the inhibition was 89% and the inhibition at 0.1 µM was determined as 59%.
On to `CCSc1nc2c(C)sc(C(=O)OC(C)OC(=O)OC3CCCCC3)c2n1Cc1ccc(-c2ccccc2-c2nn[nH]n2)cc1` (stereo not drawn) [compound 6], for which the inhibition in vivo at 1 mg/kg in assay [1] is at least 70%. In assay [2], this molecule displayed an inhibition at 1 µM of 84% and an inhibition at 0.1 µM of 46%.
In the same order, the values of `COC(=O)c1sc(C)c2nc(SC)n(Cc3ccc(-c4ccccc4-c4nn[nH]n4)cc3)c12` [compound 7] are 30 to 50%, 77% and 55%.
For the molecule `COc1nc2c(C)sc(C(=O)O)c2n1Cc1ccc(-c2ccccc2-c2nn[nH]n2)cc1` [compound 28], the inhibition in vivo at 1 mg/kg in assay [1] is at least 70%. In assay [2], this molecule displayed an inhibition at 1 µM of 65% and an inhibition at 0.1 µM of 19%.
In the case of `CCOc1nc2c(C)sc(C(=O)O)c2n1Cc1ccc(-c2ccccc2-c2nn[nH]n2)cc1` [compound 29], in assay [2], the inhibition at 1 µM was 67% and the inhibition at 0.1 µM was 39%.
In the same order, the values of `CCCOc1nc2c(C)sc(C(=O)O)c2n1Cc1ccc(-c2ccccc2-c2nn[nH]n2)cc1` [compound 30] are 72% and 33%.
In assay [2], `CCNc1nc2c(C)sc(C(=O)O)c2n1Cc1ccc(-c2ccccc2-c2nn[nH]n2)cc1` [compound 31] showed an inhibition at 1 µM of 75% and an inhibition at 0.1 µM of 26%.
`COc1nc2c(C)sc(C(=O)OCOC(C)=O)c2n1Cc1ccc(-c2ccccc2-c2nn[nH]n2)cc1` [compound 36]: the inhibition in vivo at 1 mg/kg in assay [1] was at least 70%. In assay [2], the inhibition at 1 µM amounted to 92% and the inhibition at 0.1 µM came out at 73%.
